Data as given in ChEMBL document CHEMBL1201861, “Genomics of Drug Sensitity in Cancer screening data, Wellcome Trust Sanger Institute”.

Assays:
NCI-H2171 = assay: cells; format: functional, cell-based, Homo sapiens; conditions: Homo sapiens, NCI-H2171;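 also: growth inhibition of human NCI-H2171 cells, read out by a cell viability assay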
Description: SANGER: Inhibition of human NCI-H2171 cell growth in a cell viability assay.

SNU-423 = assay: cells; format: functional, cell-based; conditions: Homo sapiens
Description: SANGER: Inhibition of human SNU-423 cell growth in a cell viability assay.

DBTRG-05MG = assay: cells; format: functional, cell-based; conditions: Homo sapiens;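 also: cell viability assay measuring growth inhibition of human DBTRG-05MG cells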
Description: SANGER: Inhibition of human DBTRG-05MG cell growth in a cell viability assay.

MDA-MB-415 = assay: cells; format: functional, cell-based; conditions: Homo sapiens
RPMI-6666 = assay: cells; format: functional, cell-based, Homo sapiens; conditions: Homo sapiens, RPMI-6666
Description: SANGER: Inhibition of human RPMI-6666 cell growth in a cell viability assay.

CAL-12T = assay: cells; format: functional, cell-based; conditions: Homo sapiens;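 also: growth inhibition of human CAL-12T cells, read out with a cell viability assay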
Description: SANGER: Inhibition of human CAL-12T cell growth in a cell viability assay.

LP-1 = assay: cells; format: functional, cell-based, Homo sapiens; conditions: Homo sapiens, LP-1;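 also: growth inhibition of human LP-1 cells, with the read-out taken from a cell viability assay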
Description: SANGER: Inhibition of human LP-1 cell growth in a cell viability assay.

NCI-H28 = assay: cells; format: functional, cell-based; conditions: Homo sapiens;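 also: growth inhibition of human NCI-H28 cells, read out as cell viability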
Description: SANGER: Inhibition of human NCI-H28 cell growth in a cell viability assay.

A2780 = assay: cells; format: functional, cell-based; conditions: Homo sapiens;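 also: growth inhibition of A2780 cells, read out with a cell viability assay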
Description: SANGER: Inhibition of human A2780 cell growth in a cell viability assay.

Detroit 562 = assay: cells; format: functional, cell-based; conditions: Homo sapiens;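 also: growth inhibition of human Detroit 562 cells, read out by a cell viability assay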
Description: SANGER: Inhibition of human Detroit562 cell growth in a cell viability assay.

T98G = assay: cells; format: functional, cell-based; conditions: Homo sapiens;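 also: growth inhibition of T98G cells, read out by a cell viability assay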
Description: SANGER: Inhibition of human T98G cell growth in a cell viability assay.

COLO-679 = assay: cells; format: functional, cell-based; conditions: Homo sapiens
Description: SANGER: Inhibition of human COLO-679 cell growth in a cell viability assay.

MDA-MB-231 = assay: cells; format: functional, cell-based; conditions: Homo sapiens
Description: SANGER: Inhibition of human MDA-MB-231 cell growth in a cell viability assay.

MKN-45 = assay: cells; format: functional, cell-based; conditions: Homo sapiens;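 also: growth inhibition of human MKN-45 cells, measured with a cell viability assay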
Description: SANGER: Inhibition of human MKN45 cell growth in a cell viability assay.

KYSE-450 = assay: cells; format: functional, cell-based; conditions: Homo sapiens;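 also: cell growth inhibition measured by a viability assay in human KYSE-450 cells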
Description: SANGER: Inhibition of human KYSE-450 cell growth in a cell viability assay.

NCI-H322M = assay: cells; format: functional, cell-based, Homo sapiens; conditions: Homo sapiens, NCI-H322M;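 also: cell viability assay measuring inhibition of growth of human NCI-H322M cells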
Description: SANGER: Inhibition of human NCI-H322M cell growth in a cell viability assay.

CAMA-1 = assay: cells; format: functional, cell-based; conditions: Homo sapiens;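 also: growth inhibition of CAMA-1 cells, read out with a cell viability assay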
Description: SANGER: Inhibition of human CAMA-1 cell growth in a cell viability assay.

HEC-1 = assay: cells; format: functional, cell-based; conditions: Homo sapiens;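 also: growth inhibition of the cell line, read out with a cell viability assay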
Description: SANGER: Inhibition of human HEC-1 cell growth in a cell viability assay.

RPMI-2650 = assay: cells; format: functional, cell-based; conditions: Homo sapiens
Description: SANGER: Inhibition of human RPMI-2650 cell growth in a cell viability assay.

COLO-678 = assay: cells; format: functional, cell-based; conditions: Homo sapiens
Description: SANGER: Inhibition of human COLO-678 cell growth in a cell viability assay.

G-402 = assay: cells; format: functional, cell-based; conditions: Homo sapiens
Description: SANGER: Inhibition of human G-402 cell growth in a cell viability assay.

BFTC-909 = assay: cells; format: functional, cell-based; conditions: Homo sapiens
Description: SANGER: Inhibition of human BFTC-909 cell growth in a cell viability assay.

NY = assay: cells; format: functional, cell-based; conditions: Homo sapiens
Description: SANGER: Inhibition of human NY cell growth in a cell viability assay.

NCI-H727 = assay: cells; format: functional, cell-based; conditions: Homo sapiens;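 also: growth inhibition of human NCI-H727 cells, read out with a cell viability assay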
Description: SANGER: Inhibition of human NCI-H727 cell growth in a cell viability assay.

C3A = assay: cells; format: functional, cell-based; conditions: Homo sapiens;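 also: growth inhibition of C3A human cells, quantified with a cell viability readout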
Description: SANGER: Inhibition of human C3A cell growth in a cell viability assay.

GAMG = assay: cells; format: functional, cell-based; conditions: Homo sapiens;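 also: cell growth inhibition measured by a viability assay in the GAMG human cell line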
Description: SANGER: Inhibition of human GAMG cell growth in a cell viability assay.

NCI-H1417 = assay: cells; format: functional, cell-based, Homo sapiens; conditions: Homo sapiens, NCI-H1417;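 also: human NCI-H1417 cells, growth inhibition determined with a cell viability readout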
Description: SANGER: Inhibition of human NCI-H1417 cell growth in a cell viability assay.

8305C = assay: cells; format: functional, cell-based; conditions: Homo sapiens
Description: SANGER: Inhibition of human 8305C cell growth in a cell viability assay.

U-118-MG = assay: cells; format: functional, cell-based; conditions: Homo sapiens
Description: SANGER: Inhibition of human U-118-MG cell growth in a cell viability assay.

D-392MG = assay: cells; format: functional, cell-based; conditions: Homo sapiens
FaDu = assay: cells; format: functional, cell-based; conditions: Homo sapiens;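 also: cell viability readout of growth inhibition in FaDu cells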
Description: SANGER: Inhibition of human FADU cell growth in a cell viability assay.

SiHa = assay: cells; format: functional, cell-based; conditions: Homo sapiens;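 also: Viability-based readout of growth inhibition in SiHa cells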
Description: SANGER: Inhibition of human SiHa cell growth in a cell viability assay.

HuP-T4 = assay: cells; format: functional, cell-based; conditions: Homo sapiens;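 also: cell viability assay measuring how much HuP-T4 cell growth is inhibited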
Description: SANGER: Inhibition of human HuP-T4 cell growth in a cell viability assay.

SK-N-AS = assay: cells; format: functional, cell-based; conditions: Homo sapiens;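 also: growth inhibition of human SK-N-AS cells, measured with a cell viability assay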
Description: SANGER: Inhibition of human SK-N-AS cell growth in a cell viability assay.

SW1417 = assay: cells; format: functional, cell-based; conditions: Homo sapiens;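 also: growth inhibition of human SW1417 cells, read out with a cell viability assay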
Description: SANGER: Inhibition of human SW1417 cell growth in a cell viability assay.

Panc1005 = assay: cells; format: functional, cell-based; conditions: Homo sapiens;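 also: growth inhibition of human PANC-10-05 cells, measured by a cell viability assay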
Description: SANGER: Inhibition of human PANC-10-05 cell growth in a cell viability assay.

ACHN = assay: cells; format: functional, cell-based; conditions: Homo sapiens;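 also: cell viability read-out used to gauge how strongly growth of human ACHN cells is suppressed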
Description: SANGER: Inhibition of human ACHN cell growth in a cell viability assay.

ST486 = assay: SANGER: Inhibition of human ST486 cell growth in a cell viability assay.; format: functional, cell-based; conditions: Homo sapiens, ST486
CHL-1 = assay: cells; format: functional, cell-based; conditions: Homo sapiens;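 also: cell growth inhibition, read out with a cell viability assay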
Description: SANGER: Inhibition of human CHL-1 cell growth in a cell viability assay.

HCC1954 = assay: cells; format: functional, cell-based; conditions: Homo sapiens;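 also: growth inhibition of human HCC1954 cells, read out with a cell viability assay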
Description: SANGER: Inhibition of human HCC1954 cell growth in a cell viability assay.

SU-DHL-1 = assay: SANGER: Inhibition of human SU-DHL-1 cell growth in a cell viability assay.; format: functional, cell-based; conditions: Homo sapiens, SU-DHL-1
HOS = assay: cells; format: functional, cell-based; conditions: Homo sapiens;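 also: growth inhibition of human HOS cells, read out with a cell viability assay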
Description: SANGER: Inhibition of human HOS cell growth in a cell viability assay.

NCI-H1437 = assay: cells; format: functional, cell-based; conditions: Homo sapiens;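 also: growth inhibition of human NCI-H1437 cells, read out by a cell viability assay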
Description: SANGER: Inhibition of human NCI-H1437 cell growth in a cell viability assay.

M14 = assay: cells; format: functional, cell-based; conditions: Homo sapiens;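 also: growth inhibition of M14 cells, read out with a cell viability assay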
Description: SANGER: Inhibition of human M14 cell growth in a cell viability assay.

MHH-ES-1 = assay: cells; format: functional, cell-based; conditions: Homo sapiens
Description: SANGER: Inhibition of human MHH-ES-1 cell growth in a cell viability assay.

SIG-M5 = assay: cells; format: functional, cell-based, Homo sapiens; conditions: Homo sapiens, SIG-M5;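 also: cell viability assay read-out, measuring how strongly growth of cultured human SIG-M5 cells is inhibited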
Description: SANGER: Inhibition of human SIG-M5 cell growth in a cell viability assay.

COR-L105 = assay: cells; format: functional, cell-based; conditions: Homo sapiens
Description: SANGER: Inhibition of human COR-L105 cell growth in a cell viability assay.

NCI-H2081 = assay: cells; format: functional, cell-based, Homo sapiens; conditions: Homo sapiens, NCI-H2081;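 also: growth inhibition of human NCI-H2081 cells, read out with a cell viability assay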
Description: SANGER: Inhibition of human NCI-H2081 cell growth in a cell viability assay.

YT = assay: cells; format: functional, cell-based, Homo sapiens; conditions: Homo sapiens, YT
Description: SANGER: Inhibition of human YT cell growth in a cell viability assay.

NCI-H1703 = assay: cells; format: functional, cell-based; conditions: Homo sapiens;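 also: growth inhibition of NCI-H1703 cells, read out via a cell viability assay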
Description: SANGER: Inhibition of human NCI-H1703 cell growth in a cell viability assay.

COLO-792 = assay: cells; format: functional, cell-based; conditions: Homo sapiens
Description: SANGER: Inhibition of human COLO-792 cell growth in a cell viability assay.

SAOS-2 = assay: cells; format: functional, cell-based; conditions: Homo sapiens;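 also: growth inhibition of human Saos-2 cells determined by a cell viability assay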
Description: SANGER: Inhibition of human Saos-2 cell growth in a cell viability assay.

EGI-1 = assay: cells; format: functional, cell-based; conditions: Homo sapiens;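 also: cell viability readout used to gauge growth inhibition of EGI-1 cells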
Description: SANGER: Inhibition of human EGI-1 cell growth in a cell viability assay.

NCI-H1963 = assay: cells; format: functional, cell-based, Homo sapiens; conditions: Homo sapiens, NCI-H1963;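 also: cell growth inhibition of the human line, determined with a cell viability assay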
Description: SANGER: Inhibition of human NCI-H1963 cell growth in a cell viability assay.

U2OS = assay: cells; format: functional, cell-based, U-2-OS; conditions: Homo sapiens;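 also: growth inhibition of human U-2-OS cells, determined with a cell viability assay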
Description: SANGER: Inhibition of human U-2-OS cell growth in a cell viability assay.

SW626 = assay: cells; format: functional, cell-based; conditions: Homo sapiens;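 also: growth inhibition of SW626 cells, measured with a cell viability assay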
Description: SANGER: Inhibition of human SW626 cell growth in a cell viability assay.

ChaGo-K-1 = assay: cells; format: functional, cell-based; conditions: Homo sapiens;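 also: growth inhibition of ChaGo-K-1 cells, read out with a cell viability assay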
Description: SANGER: Inhibition of human ChaGo-K-1 cell growth in a cell viability assay.

NCI-H2030 = assay: cells; format: functional, cell-based; conditions: Homo sapiens;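 also: growth inhibition of human NCI-H2030 cells, read out by a cell viability assay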
Description: SANGER: Inhibition of human NCI-H2030 cell growth in a cell viability assay.

ESS-1 = assay: cells; format: functional, cell-based; conditions: Homo sapiens;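 also: growth inhibition of human ESS-1 cells, read out by a cell viability assay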
Description: SANGER: Inhibition of human ESS-1 cell growth in a cell viability assay.

JEG-3 = assay: cells; format: functional, cell-based; conditions: Homo sapiens;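 also: growth inhibition of human JEG-3 cells, read out with a cell viability assay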
Description: SANGER: Inhibition of human JEG-3 cell growth in a cell viability assay.

SMILES: C/C(=C\c1csc(C)n1)[C@@H]1C[C@@H]2O[C@]2(C)CCC[C@H](C)[C@H](O)[C@@H](C)C(=O)C(C)(C)[C@@H](O)CC(=O)O1 [PATUPILONE]
- IC50 (NCI-H2171): 9.62 nM
- IC50 (SNU-423): 1.67 nM
- IC50 (DBTRG-05MG): 0.00586 µM
- IC50 (MDA-MB-415): 0.02 µM
- IC50 (RPMI-6666): 0.0015 µM
- IC50 (CAL-12T): 0.000239 µM
- IC50 (LP-1): > 0.032 µM
- IC50 (NCI-H28): 0.022 µM
- IC50 (A2780): 0.00209 µM
- IC50 (Detroit 562): 0.0014 µM
- IC50 (T98G): 0.02 µM
- IC50 (COLO-679): 0.394 nM
- IC50 (MDA-MB-231): 0.0246 µM
- IC50 (MKN-45): 0.00438 µM
- IC50 (KYSE-450): 0.000267 µM
- IC50 (NCI-H322M): > 0.032 µM
- IC50 (CAMA-1): 0.0129 µM
- IC50 (HEC-1): 0.00909 µM
- IC50 (RPMI-2650): 0.00208 µM
- IC50 (COLO-678): > 0.032 µM
- IC50 (G-402): 0.00527 µM
- IC50 (BFTC-909): 1.56 nM
- IC50 (NY): 1.56 nM
- IC50 (NCI-H727): 0.0018 µM
- IC50 (C3A): 0.00342 µM
- IC50 (GAMG): 0.00178 µM
- IC50 (NCI-H1417): 21 nM
- IC50 (8305C): 0.00232 µM
- IC50 (U-118-MG): 0.018 µM
- IC50 (D-392MG): > 0.032 µM
- IC50 (FaDu): 0.0262 µM
- IC50 (SiHa): > 0.032 µM
- IC50 (HuP-T4): 0.00254 µM
- IC50 (SK-N-AS): > 0.032 µM
- IC50 (SW1417): > 0.032 µM
- IC50 (Panc1005): 1.12 nM
- IC50 (ACHN): 0.749 nM
- IC50 (ST486): 0.000721 µM
- IC50 (CHL-1): 0.979 nM
- IC50 (HCC1954): 0.00919 µM
- IC50 (SU-DHL-1): > 0.032 µM
- IC50 (HOS): 0.000215 µM
- IC50 (NCI-H1437): 0.000689 µM
- IC50 (M14): > 0.032 µM
- IC50 (MHH-ES-1): 0.000893 µM
- IC50 (SIG-M5): 0.169 nM
- IC50 (COR-L105): 0.00954 µM
- IC50 (NCI-H2081): > 0.032 µM
- IC50 (YT): 0.0187 µM
- IC50 (NCI-H1703): 0.00776 µM
- IC50 (COLO-792): > 0.032 µM
- IC50 (SAOS-2): > 0.032 µM
- IC50 (EGI-1): > 0.032 µM
- IC50 (NCI-H1963): 12 nM
- IC50 (U2OS): > 0.032 µM
- IC50 (SW626): 0.00198 µM
- IC50 (ChaGo-K-1): 0.00961 µM
- IC50 (NCI-H2030): 0.000699 µM
- IC50 (ESS-1): 0.00152 µM
- IC50 (JEG-3): 0.00501 µM

SMILES: CCCCCCCCCCCC1=C(O)C(=O)C=C(O)C1=O [EMBELIN]
- IC50 (NCI-H2171): > 32000 nM
- IC50 (SNU-423): > 32000 nM
- IC50 (DBTRG-05MG): 15.4 µM
- IC50 (MDA-MB-415): 30 µM
- IC50 (RPMI-6666): 8.67 µM
- IC50 (CAL-12T): 9.73 µM
- IC50 (LP-1): > 32 µM
- IC50 (NCI-H28): 26 µM
- IC50 (A2780): 13.2 µM
- IC50 (Detroit 562): 11.5 µM
- IC50 (T98G): 19.6 µM
- IC50 (COLO-679): 4200 nM
- IC50 (MDA-MB-231): 21.8 µM
- IC50 (MKN-45): 7.98 µM
- IC50 (KYSE-450): 17.7 µM
- IC50 (NCI-H322M): > 32 µM
- IC50 (CAMA-1): 7.09 µM
- IC50 (HEC-1): 13 µM
- IC50 (RPMI-2650): 7.32 µM
- IC50 (COLO-678): > 32 µM
- IC50 (G-402): 11.3 µM
- IC50 (BFTC-909): > 32000 nM
- IC50 (NY): 4800 nM
- IC50 (NCI-H727): 7.88 µM
- IC50 (C3A): 15.4 µM
- IC50 (GAMG): 9.09 µM
- IC50 (NCI-H1417): > 32000 nM
- IC50 (8305C): 25.7 µM
- IC50 (U-118-MG): 29.1 µM
- IC50 (D-392MG): 16.6 µM
- IC50 (FaDu): 15.8 µM
- IC50 (SiHa): > 32 µM
- IC50 (HuP-T4): 7.56 µM
- IC50 (SK-N-AS): 13.8 µM
- IC50 (SW1417): > 32 µM
- IC50 (Panc1005): > 32000 nM
- IC50 (ACHN): > 32000 nM
- IC50 (ST486): 8.3 µM
- IC50 (CHL-1): 4700 nM
- IC50 (HCC1954): 11.3 µM
- IC50 (SU-DHL-1): > 32 µM
- IC50 (HOS): 15.3 µM
- IC50 (NCI-H1437): 6.27 µM
- IC50 (M14): 11 µM
- IC50 (MHH-ES-1): 15.8 µM
- IC50 (SIG-M5): 1310 nM
- IC50 (COR-L105): 22.3 µM
- IC50 (NCI-H2081): > 32 µM
- IC50 (YT): 12.8 µM
- IC50 (NCI-H1703): 19.1 µM
- IC50 (COLO-792): > 32 µM
- IC50 (SAOS-2): 3.95 µM
- IC50 (EGI-1): 23.1 µM
- IC50 (NCI-H1963): > 32000 nM
- IC50 (U2OS): > 32 µM
- IC50 (SW626): 9.35 µM
- IC50 (ChaGo-K-1): 7.08 µM
- IC50 (NCI-H2030): 12.7 µM
- IC50 (ESS-1): 9.42 µM
- IC50 (JEG-3): 16.8 µM
